tested on: TNFα; assay: Cot Monocyte TNFα Cell Based Assay; settings: Homo sapiens, Monocyte, read-out: EC50 TNF, LPS-stimulated human monocytes, TNFα

Row | EC50 [nM] | Molecule
1 | 88 | CC(C)(C)N1CCC(n2cc([C@@H](Nc3cc(Cl)c4ncc(C#N)c(Nc5ccc(F)c(Cl)c5)c4c3)c3cccc4ncsc34)nn2)CC1 [Example 52, (S)-6-((benzo[d]thiazol-7-yl(1-(1-(tert-butyl)piperidin-4-yl)-1H-1,2,3-triazol-4-yl)methyl)amino)-8-chloro-4-((3-chloro-4-fluorophenyl)amino)quinoline-3-carbonitrile]
2 | 131 | CC(C)(C)N1CCC(n2cc([C@@H](Nc3cc(Cl)c4ncc(C#N)c(Nc5ccc(F)c(Cl)c5)c4c3)c3cccc4c3CCN4)nn2)CC1 [Example 60, (S)-6-(((1-(1-(tert-butyl)piperidin-4-yl)-1H-1,2,3-triazol-4-yl)(indolin-4-yl)methyl)amino)-8-chloro-4-((3-chloro-4-fluorophenyl)amino)quinoline-3-carbonitrile]
3 | 538 | CCN1CCC(n2cc([C@@H](Nc3cc(Cl)c4ncc(C#N)c(Nc5ccc(F)c(Cl)c5)c4c3)c3ccc4cccnc4c3)nn2)CC1 [Example 65, (S)-8-chloro-4-((3-chloro-4-fluorophenyl)amino)-6-(((1-(1-ethylpiperidin-4-yl)-1H-1,2,3-triazol-4-yl)(quinolin-7-yl)methyl)amino)quinoline-3-carbonitrile]
4 | 981 | CC(C)(C)CNc1c(C#N)cnc2c(C#N)cc(N[C@H](c3cn(C4CC4)nn3)c3cccc4c3CNC4=O)cc12 [Example 76, (S)-6-(((1-cyclopropyl-1H-1,2,3-triazol-4-yl)(1-oxoisoindolin-4-yl)methyl)amino)-4-(neopentylamino)quinoline-3,8-dicarbonitrile]
5 | 253 | [2H]C(Nc1cc(Cl)c2ncc(C#N)c(N[C@H](CC)c3ccccc3)c2c1)(c1cn(C2CC2)nn1)c1cc(F)cnc1C (stereo partly drawn) [Example 113, 8-chloro-6-(((1-cyclopropyl-1H-1,2,3-triazol-4-yl)(5-fluoro-2-methylpyridin-3-yl)methyl-d)amino)-4-(((R)-1-phenylpropyl)amino)quinoline-3-carbonitrile]
6 | 978 | N#Cc1cnc2c(Cl)cc(N[C@H](c3cn(C4CC4)nn3)c3cnccc3Cl)cc2c1Nc1cnc(F)c(F)c1 [Example 133, (S)-8-chloro-6-(((4-chloropyridin-3-yl)(1-cyclopropyl-1H-1,2,3-triazol-4-yl)methyl)amino)-4-((5,6-difluoropyridin-3-yl)amino)quinoline-3-carbonitrile]
7 | 660 | [2H][C@](Nc1cc(Cl)c2ncc(C#N)c(NCC(C)(C)C)c2c1)(c1ccc(F)nc1)c1c[nH]nn1 [Example 135, (S)-8-chloro-6-(((6-fluoropyridin-3-yl)(1H-1,2,3-triazol-4-yl)methyl-d)amino)-4-(neopentylamino)quinoline-3-carbonitrile]
8 | 235 | Cc1scnc1[C@H](Nc1cc(Cl)c2ncc(C#N)c(Nc3ccc(F)c(Cl)c3)c2c1)c1cn(C2CCN(C(C)(C)C)CC2)nn1 [Example 137, (S)-6-(((1-(1-(tert-butyl)piperidin-4-yl)-1H-1,2,3-triazol-4-yl)(5-methylthiazol-4-yl)methyl)amino)-8-chloro-4-((3-chloro-4-fluorophenyl)amino)quinoline-3-carbonitrile]
9 | 1190 | N#Cc1cnc2c(Cl)cc(N[C@@H](C3=CCOCC3)c3c[nH]nn3)cc2c1Nc1cnc(F)c(F)c1 [Example 156, (S)-8-chloro-4-((5,6-difluoropyridin-3-yl)amino)-6-(((3,6-dihydro-2H-pyran-4-yl)(1H-1,2,3-triazol-4-yl)methyl)amino)quinoline-3-carbonitrile]
10 | 1670 | N#Cc1cnc2c(Cl)cc(N[C@H](c3c[nH]nn3)c3cccnc3Cl)cc2c1Nc1cnc(F)c(F)c1 [Example 161, (S)-8-chloro-6-(((2-chloropyridin-3-yl)(1H-1,2,3-triazol-4-yl)methyl)amino)-4-((5,6-difluoropyridin-3-yl)amino)quinoline-3-carbonitrile]
11 | 4140 | N#Cc1cnc2c(Cl)cc(N[C@@H](c3cnc(F)c(F)c3)c3c[nH]nn3)cc2c1Nc1cnc(F)c(F)c1 [Example 163, (S)-8-chloro-6-(((5,6-difluoropyridin-3-yl)(1H-1,2,3-triazol-4-yl)methyl)amino)-4-((5,6-difluoropyridin-3-yl)amino)quinoline-3-carbonitrile]
12 | 1220 | Cc1nc(Cl)ccc1[C@H](Nc1cc(Cl)c2ncc(C#N)c(Nc3cnc(F)c(F)c3)c2c1)c1c[nH]nn1 [Example 169, (S)-8-chloro-6-(((6-chloro-2-methylpyridin-3-yl)(1H-1,2,3-triazol-4-yl)methyl)amino)-4-((5,6-difluoropyridin-3-yl)amino)quinoline-3-carbonitrile]
13 | 1260 | Cc1ncsc1[C@H](Nc1cc(Cl)c2ncc(C#N)c(Nc3cnc(F)c(F)c3)c2c1)c1c[nH]nn1 [Example 170, (R)-8-chloro-4-((5,6-difluoropyridin-3-yl)amino)-6-(((4-methylthiazol-5-yl)(1H-1,2,3-triazol-4-yl)methyl)amino)quinoline-3-carbonitrile]
14 | 92 | CC[C@@H](Nc1c(C#N)cnc2c(Cl)cc(N[C@@H](c3cccnc3)c3cn([C@@H](C)CF)nn3)cc12)c1ccccc1 [Example 181, 8-chloro-6-(((S)-(1-((S)-1-fluoropropan-2-yl)-1H-1,2,3-triazol-4-yl)(pyridin-3-yl)methyl)amino)-4-(((R)-1-phenylpropyl)amino)quinoline-3-carbonitrile]
15 | 1040 | N#Cc1cnc2c(Cl)cc(N[C@@H](c3cccnc3)c3cn(C4COC4)nn3)cc2c1N[C@@H](CCO)c1ccccc1 [Example 182, 8-chloro-4-(((S)-3-hydroxy-1-phenylpropyl)amino)-6-(((S)-(1-(oxetan-3-yl)-1H-1,2,3-triazol-4-yl)(pyridin-3-yl)methyl)amino)quinoline-3-carbonitrile]
16 | 111 | CC[C@@H](Nc1c(C#N)cnc2c(Cl)cc(N[C@@H](c3cccnc3)c3cn(C4COC4)nn3)cc12)c1ccccc1 [Example 194, 8-chloro-6-(((S)-(1-(oxetan-3-yl)-1H-1,2,3-triazol-4-yl)(pyridin-3-yl)methyl)amino)-4-(((R)-1-phenylpropyl)amino)quinoline-3-carbonitrile]

same assay, conditions: read-out: EC50 TNF; LPS-stimulated human monocytes, TNFα

Row | EC50 [nM] | Molecule
17 | 257 | CC(C)(C)N1CCC(n2cc([C@@H](Nc3cc(Cl)c4ncc(C#N)c(Nc5ccc(F)c(Cl)c5)c4c3)c3ccc4ncsc4c3)nn2)CC1 [Example 63, (S)-6-((benzo[d]thiazol-6-yl(1-(1-(tert-butyl)pipcridin-4-yl)-1H-1,2,3-triazol-4-yl)methyl)amino)-8-chloro-4-((3-chloro-4-fluorophenyl)amino)quinoline-3-carbonitrile]

same assay, conditions: read-out: EC50 TNF; LPS-stimulated human monocytes, TNFα TR-FRET

Row | EC50 [nM] | Molecule
18 | 1000 | 6-(((6-fluoro-2-methylpyridin-3-yl)(1-((1- (trifluoromethyl)cyclopropyl)-1H-1,2,3- triazol-4-yl)methyl)amino)-8-(3-hydroxy- 3-methylbutyl-1-yl)-4- (neopentylamino)quinoline-3-carbonitrile [Example 982]

same assay, conditions: second value of the cell IC50/EC50; LPS-stimulated human monocytes, TNFα by TR-FRET

Row | Molecule | IC50/EC50 [nM]: EC50 (TNFα) [nM]
19 | CCN1CCC(n2cc(CNc3cc(Cl)c4ncc(C#N)c(Nc5ccc(F)c(Cl)c5)c4c3)nn2)CC1 [Comparative Example 1, reference compound] | 310
20 | Cn1cc(CNc2cc(Cl)c3ncc(C#N)c(Nc4ccc(F)c(Cl)c4)c3c2)nn1 [Comparative Example 3, reference compound] | > 10000

Reference: US11066414B2, “Cot modulators and methods of use thereof” (Gilead Sciences, Inc., priority 2015, dated 2021)
